Where a SMILES comes first, the peptide text is derived from it. The star is where a group is joined. Cbz = O=C(OCc1ccccc1)*
Tests used:
[1] = system: S408 of IRS-1; assay: In vivo phosphorylation of S408 of IRS-1 in cultured Fao cells; assay type: cell-based, rat
Description: Following 48 hours, the cells were starved for 16 hours. The medium was removed and the cells were incubated with or without 100 nM insulin for the indicated times (FIG. 10a). Alternatively, the cells were incubated with insulin, SMase or calyculin A as indicated (FIG. 10b). Cytosolic extracts (100 μg) were resolved on 7.5% SDS-PAGE and immunoblotted with anti-phospho-Ser 408 antibody or anti-PY antibodies as indicated.
Infection of Fao cells with adenovirus—Fao cells were grown in RPMI medium containing 10% FCS. At 70% confluence cells were infected with adenoviruses harboring the gene of interest at a titer of 7 10^7 PFU/ml. After incubation for 2 h hours at 37° C., the virus-containing medium was diluted 1:5 in fresh RPMI medium. After 24 h the medium was replaced with a fresh RPMI medium containing 10% FCS. 48 h post-infection the Fao cells were starved in serum-free RPMI for 16 h and were then subjected to the indicated treatments as described below.
Treatment of cells and preparation of extracts—Virally-infected Fao cells were grown as described above. Nave Rat hepatoma (Fao) cells or CHO cells were grown in RPMI medium supplemented with 10% fetal calf serum as described (22). At 70-80% confluence, cells were deprived of serum for 16 h prior to each experiment, and were then incubated with inducers of insulin resistance and/or insulin. […]

[2] = system: CHO-T cells; assay: Phosphorylation (mobility shift) of truncated IRS-1 PH/PTB constructs in CHO-T cells; assay type: cell-based, Chinese Hamster; settings: 25 nM calyculin A 60 min
Description: (§1) FIGS. 7a-c show In vivo phosphorylation of PH/PTB-L in response to insulin. CHO-T cells were transiently transfected with pcDNA3-Myc-PH/PTB (1-1290 nt) or with an insert-free plasmid (control). Twenty-four hours post-transfection, the cells were deprived of serum for 16 h and were then treated with insulin for the indicated time periods. Cell extracts (100 μg) were resolved on 10% SDS-PAGE and immunoblotted with anti-pY or anti-Myc antibodies (FIG. 7a). In parallel, samples (100 μg, 40 μl) were incubated with 3 units (U) of calf intestine phosphatase (CIP) at 37° C. for 1 h. The samples were resolved on 10% SDS-PAGE and immunoblotted with anti-Myc antibodies (FIG. 7b). The results are of a representative of two experiments. FIG. 7c—CHO^PH/PTB-L cells were starved in serum-free F12 medium for 16 h. The cells were treated for 30 min with the indicated inhibitors prior to being treated with 100 nM insulin for 30 min. Cell extracts were prepared, samples were resolved on 10% SDS-PAGE and were immunoblotted with anti-Myc antibodies. Results are of a representative of three experiments.
FIGS. 8a-b show the effects of insulin on Serine phosphorylation of Myc-PH/PTB-L^7A CHO-T cells were transiently transfected with constructs encoding Myc-PH/PTB-L (1-1290 nt), either wild type (WT) or the 7A mutant (FIG. 8a). Alternatively, the cells were transfected or with the constructs encoding Myc-PH/PTB-L (1-1290 nt; 1-430 aa) or Myc-PH/PTB-S (1-1095 nt; 1-365 aa, FIG. 8b). Following 24 hours in culture, the cells were incubated in serum-free F12 medium for 16 ch prior to being treated with insulin for the indicated times. Cell extracts were resolved on 10% SDS-PAGE and immunoblotted with anti-Myc antibodies. Results are of a representative of three experiments.
FIGS. 9a-b show the effects of insulin and calyculin A on Ser phosphorylation of PH/PTB-L mutants. FIG. 9a—CHO-T cells were transiently transfected with constructs expressing either Myc-PH/PTB^WT or the following PH/PTB mutants: S336A, S407A, S408A, S407/8A and S3A (S336/407/408A). Following 24 hours the cells were deprived of serum for 16 h, and were treated with insulin for the indicated times. Cell extracts were resolved on 10% SDS-PAGE and immunoblotted with anti-Myc antibodies. The results are of a representative of two-three experiments. FIG. 9b—CHO-T cells were transiently transfected with pcDNA3-myc-PH/PTB^WT or pcDNA3-myc-PH/PTB^S408A. Following 24 hours the cells were starved for 16 h and were then treated either with 100 nM insulin for 30 min or with 25 nM calyculin A for 60 min. Cell extracts were resolved on 10% SDS-PAGE and were immunoblotted with anti-Myc antibodies. Results are of a representative of two experiments.
Plasmids construction—i. Myc-tagged-IRS-1 The cDNA, encoding for the mouse IRS-1 in the pCNA-3 expression plasmid (35) was digested with Hind III and BspE-1. This deleted a 9 by fragment from the 5′-IRS-1 cDNA that was replaced by a double stranded synthetic oligonucleotide encoding the Myc tag and the missing amino-acids of IRS-1 (bold) […] (SEQ ID NO. 9). ii. Myc-tagged truncated IRS-1 (aa 1-430, PH/PTB-L) Myc-tagged mouse IRS-1 cDNA (N-terminus, 1-1290 nt), encoding for the first 430 aa of IRS-1, was PCR-amplified with the following primers. 5′-CAGGATCCGCATATGGAACAAAAGCTC-3′ (sense) (SEQ ID NO. 10); 5′-GAGAATTCATCAGGGACTAGAACCATA-3′ (anti-sense) (SEQ ID NO. 11), using as a template the pcDNA3-Myc-IRS-1 plasmid. The PCR product was ligated into a pGEM-T. The insert was excised from pGEM-T with BamH I and EcoR I (italic), and then was ligated into pcDNA3 at the same restriction sites to generate pcDNA3-Myc-IRS-1^PH/PTB-L. iii. Myc-tagged truncated IRS-1 (aa 1-365, PH/PTB-S) Myc-tagged mouse IRS-1 cDNA (N-terminus, 1-1095 nt), encoding for the first 365 aa of IRS-1, was PCR-amplified with the following primers: 5′ […]-3′ (sense) (SEQ ID NO. 12); 5′ […] 3′ (anti sense) (SEQ ID NO. 13) using as a template the pcDNA3-Myc-IRS-1. […]

[3] = system: IRS-1; assay: Effect of proteosome inhibitor on IRS-1 protein content and Tyr phosphorylation; assay type: cell-based; settings: not shown
[4] = biological target: insulin receptor (IR) of Fao rat hepatoma cells (rat (Fao rat hepatoma cells)) (UniProt P15127); assay: cell-based or functional assay
insulin receptor (IR) of Fao rat hepatoma cells (rat (Fao rat hepatoma cells)), sequence (P15127 27-1383 limits assumed): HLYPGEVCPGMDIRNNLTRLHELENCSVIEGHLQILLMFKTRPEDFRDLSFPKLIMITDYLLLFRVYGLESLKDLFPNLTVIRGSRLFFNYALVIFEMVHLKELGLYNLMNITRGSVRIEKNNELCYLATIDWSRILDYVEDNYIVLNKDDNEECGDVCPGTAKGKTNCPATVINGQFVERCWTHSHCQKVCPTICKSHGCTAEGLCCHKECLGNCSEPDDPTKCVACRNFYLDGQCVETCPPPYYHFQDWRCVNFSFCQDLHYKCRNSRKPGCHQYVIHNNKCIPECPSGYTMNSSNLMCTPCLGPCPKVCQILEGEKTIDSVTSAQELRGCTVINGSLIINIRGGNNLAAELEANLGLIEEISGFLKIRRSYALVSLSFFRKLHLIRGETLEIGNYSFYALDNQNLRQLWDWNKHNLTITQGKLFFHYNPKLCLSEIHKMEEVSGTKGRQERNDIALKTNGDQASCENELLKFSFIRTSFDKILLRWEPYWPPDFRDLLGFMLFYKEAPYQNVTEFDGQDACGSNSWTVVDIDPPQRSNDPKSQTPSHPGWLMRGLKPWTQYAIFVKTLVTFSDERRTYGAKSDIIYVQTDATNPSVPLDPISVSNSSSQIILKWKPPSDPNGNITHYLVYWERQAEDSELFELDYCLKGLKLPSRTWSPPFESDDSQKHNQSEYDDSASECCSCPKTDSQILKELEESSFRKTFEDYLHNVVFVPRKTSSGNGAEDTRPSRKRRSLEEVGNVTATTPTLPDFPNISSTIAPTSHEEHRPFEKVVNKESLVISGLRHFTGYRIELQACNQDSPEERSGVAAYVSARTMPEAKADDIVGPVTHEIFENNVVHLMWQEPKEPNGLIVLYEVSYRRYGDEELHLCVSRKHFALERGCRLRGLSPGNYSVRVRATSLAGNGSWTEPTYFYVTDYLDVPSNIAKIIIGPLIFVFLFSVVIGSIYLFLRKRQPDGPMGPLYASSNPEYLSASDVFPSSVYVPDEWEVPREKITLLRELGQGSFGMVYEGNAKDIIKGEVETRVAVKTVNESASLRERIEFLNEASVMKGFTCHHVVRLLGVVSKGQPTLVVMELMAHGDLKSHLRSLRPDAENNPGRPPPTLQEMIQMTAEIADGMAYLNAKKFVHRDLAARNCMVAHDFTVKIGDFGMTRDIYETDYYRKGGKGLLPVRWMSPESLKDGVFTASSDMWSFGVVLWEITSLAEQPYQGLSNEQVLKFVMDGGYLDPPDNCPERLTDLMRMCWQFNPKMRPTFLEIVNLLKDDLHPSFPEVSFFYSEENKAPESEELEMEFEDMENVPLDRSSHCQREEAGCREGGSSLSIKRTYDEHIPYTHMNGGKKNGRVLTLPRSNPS

[5] = system: insulin receptor; settings: Fao cells, 10^−7M insulin, prolonged; cited from earlier work
[6] = system: CHO-T cells; assay: Insulin-induced Tyr phosphorylation of IRS-1 in stably transfected CHO-T cells; assay type: cell-based, Chinese Hamster
Description: FIGS. 1a-c show Tyrosine (Tyr) phosphorylation of IRS-1^7A and its interactions with IR. FIG. 1a—monolayers of CHO-T cells stably overexpressing either WT-IRS-1 (CHO-T^WT) or IRS-1^7A (CHO-T^7A) at 80% confluence (grown in 6 cm plates) were deprived of serum for 16 h prior to the experiment. The cells were then incubated with insulin for the indicated times at 37° C. Cells extracts (100 μg) were resolved on 7.5 SDS-PAGE and immunoblotted with the indicated antibodies. The results are of a representative of six experiments. FIG. 1b—IRS-1 was isolated from CHO-T^WT or CHO-T^7A cells. In vitro phosphorylation of IRS-1^WT and IRS-1^7A by Insulin receptor (IR) was effected as described under “Materials and Experimental Procedures” section of the Examples section which follows. The reaction mixture was subjected to immunoprecipitation with anti-IRS-1 antibodies. Immunocomplexes were resolved on 7.5 SDS-PAGE and immunoblotted with anti-phosphotyrosine (pY) or anti IRS-1 antibodies. FIG. 1c—CHO-T^WT (expressing wild type IRS-1) and CHO-T^7A (expressing the 7A IRS-1 mutant) cells were deprived of serum for 16 h prior to the experiment. The cells were stimulated with 100 nM insulin for the indicated times at 37° C. Cell extracts were prepared and samples (1 mg) were bound to immobilized IR. […]

[7] = biological target: T1, Myc-PH/PTB-L (Mus musculus, UniProt P35569); assay: In vitro dephosphorylation of Myc-PH/PTB-L with calf intestine alkaline phosphatase; assay type: biochemical; settings: 3 units CIP, 37° C., 1 h
T1 construct: Myc-tagged truncated IRS-1 (aa 1-430, PH/PTB-L); expressed in transfected cells; host or cells: CHO-T cells, transient transfection with pcDNA3-Myc-PH/PTB (1-1290 nt)
T1 sequence (P35569 1-430): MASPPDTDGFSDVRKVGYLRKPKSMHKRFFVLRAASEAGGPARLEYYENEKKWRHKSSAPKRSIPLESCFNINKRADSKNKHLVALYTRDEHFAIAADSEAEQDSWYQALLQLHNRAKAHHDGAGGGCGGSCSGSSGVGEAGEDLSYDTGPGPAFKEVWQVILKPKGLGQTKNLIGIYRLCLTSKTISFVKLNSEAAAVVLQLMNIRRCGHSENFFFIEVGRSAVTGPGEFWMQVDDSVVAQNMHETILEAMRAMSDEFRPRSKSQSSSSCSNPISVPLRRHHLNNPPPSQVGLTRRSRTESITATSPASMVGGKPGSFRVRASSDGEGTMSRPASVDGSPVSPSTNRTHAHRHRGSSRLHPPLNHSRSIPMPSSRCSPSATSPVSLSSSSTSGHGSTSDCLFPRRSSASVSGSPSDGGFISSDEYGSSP
Description: as §1

In the case of `COC[C@@H]([C@H](O)[C@H](O)C(=O)NCC[C@H](C)c1nc(/C=C/C[C@@H]2O[C@]3(C[C@@H](O)[C@@H]2C)O[C@H]([C@H](C[C@H](O)[C@H](C)[C@H](O)[C@H](C)/C=C(C)/C(C)=C/C=C/C(C)=C\C#N)OC)[C@H](OP(=O)(O)O)C3(C)C)co1)N(C)C` [Calyculin A], the “in vivo phosphorylation of S408” value ([1]; Fao cells infected with IRS-1^WT) is reported as “induced phosphorylation of S408”, the “Ser phosphorylation (mobility shift) of Myc-PH/PTB-L^WT” value [2] is reported as “triggers Ser phosphorylation” and the “mobility shift when Ser408 was mutated to Ala” value [2] is reported as “significantly reduced”.

For `CC(C)C[C@@H](C=O)NC(=O)[C@H](CC(C)C)NC(=O)[C@H](CC(C)C)NC(=O)OCc1ccccc1` [MG-132] (Cbz-Leu-Leu-Leu-aldehyde), the “effect on protein content and Tyr phosphorylation patterns of IRS-1^7A and IRS-1^WT” value [3] was “did not alter significantly”.

In the case of “Myc-IRS-1^WT (Myc-tagged wild-type mouse IRS-1 expressed in Fao cells from an adenoviral construct) (from UniProt P35569 4-1233)”, the reduction of Tyr phosphorylation content following prolonged (60 min) insulin treatment [4] is reported as 55%.

For insulin: human insulin used as stimulus, the “incubation time required for maximal phosphorylation of Ser408” value ([1]; 100 nM insulin) is given as 30 to 60 min, the “reduction in ability of IRS-1 to interact with the insulin receptor” value [5] is given as greater than 40% and the “insulin treatment time at which maximal Tyr phosphorylation of IRS-1 was detected” value [6] is given as 2 min.

B1: CIP: calf intestine alkaline phosphatase (protein, UniProt P19111 20-506, looked up)
Intestinal-type alkaline …: LVPVEEEDPAFWNRQAAQALDVAKKLQPIQTAAKNVILFLGDGMGVPTVTATRILKGQMNGKLGPETPLAMDQFPYVALSKTYNVDRQVPDSAGTATAYLCGVKGNYRTIGVSAAARYNQCKTTRGNEVTSVMNRAKKAGKSVGVVTTTRVQHASPAGAYAHTVNRNWYSDADLPADAQMNGCQDIAAQLVNNMDIDVILGGGRKYMFPVGTPDPEYPDDASVNGVRKRKQNLVQAWQAKHQGAQYVWNRTALLQAADDSSVTHLMGLFEPADMKYNVQQDHTKDPTLQEMTEVALRVVSRNPRGFYLFVEGGRIDHGHHDDKAYMALTEAGMFDNAIAKANELTSELDTLILVTADHSHVFSFGGYTLRGTSIFGLAPSKALDSKSYTSILYGNGPGYALGGGSRPDVNDSTSEDPSYQQQAAVPQASETHGGEDVAVFARGPQAHLVHGVEEETFVAHIMAFAGCVEPYTDCNLPAPTTATSIPD
With B1 the “effect on mobility shift of PH/PTB-L from insulin-treated cells” value [7] was “abolished the mobility shift”.

— US20110104167A1, “Compositions and Methods for Diagnosing and Treating Insulin Resistance” (YEDA RESEARCH AND DEVELOPMENT CO. LTD., priority 2004, published 2011)
